# Counter-ions that a name gives are not always drawn.
# How the values were obtained:
# Amaranthus [1] = experiment: Pre-emergence test/greenhouse; type: in vivo; conditions: 500 g of ai./ha, rated after three weeks vs untreated control
# Method: (§1) Solvent: 5 parts by weight of acetone
# (§2) Emulsifier: 1 part by weight of alkylaryl polyglycol ether
# (§3) To produce a suitable preparation of active compound, 1 part by weight of active compound is mixed with the stated amount of solvent, the stated amount of emulsifier is added and the concentrate is diluted with water to the desired concentration.
# (§4) Seeds of the test plants are sown in normal soil. After about 24 hours, the soil is sprayed with the preparation of active compound such that the particular amount of active compound desired is applied per unit area. The concentration of the spray liquor is chosen so that the particular amount of active compound desired is applied in 1000 litre of water per hectare.
# (§5) After three weeks, the degree of damage to the plants is rated in % damage in comparison to the development of the untreated control.
# (§6) 0%=no effect (like untreated control)
# Alopecurus [2] = experiment: Pre-emergence test/greenhouse; type: in vivo; conditions: 500 g of ai./ha, rated after three weeks vs untreated control
# Method: as §1, §2, §3, §4, §5, §6
# Setaria [3] = experiment: Pre-emergence test/greenhouse; type: in vivo; conditions: 500 g of ai./ha, rated after three weeks vs untreated control
# Method: as §1, §2, §3, §4, §5, §6
# Abutilon = experiment: Pre-emergence test/greenhouse; type: in vivo; conditions: 500 g of ai./ha, rated after three weeks vs untreated control
# Method: as §1, §2, §3, §4, §5, §6
# Galium = experiment: Pre-emergence test/greenhouse; type: in vivo; conditions: 500 g of ai./ha, rated after three weeks vs untreated control
# Method: as §1, §2, §3, §4, §5, §6
# Amaranthus [4] = experiment: Post-emergence test/greenhouse; type: in vivo; conditions: 500 g of ai./ha, rated after three weeks vs untreated control
# Method: as §1, §2, §3
# (§7) Test plants which have a height of 5-15 cm are sprayed with the preparation of active compound such that the particular amounts of active compound desired are applied per unit area. The concentration of the spray liquor is chosen so that the particular amounts of active compound desired are applied in 1000 l of water/ha.
# as §5, §6
# Alopecurus [5] = experiment: Post-emergence test/greenhouse; type: in vivo; conditions: 500 g of ai./ha, rated after three weeks vs untreated control
# Method: as §1, §2, §3, §7, §5, §6
# Sinapis = experiment: Post-emergence test/greenhouse; type: in vivo; conditions: 500 g of ai./ha, rated after three weeks vs untreated control
# Method: as §1, §2, §3, §7, §5, §6
# Setaria [6] = experiment: Post-emergence test/greenhouse; type: in vivo; conditions: 500 g of ai./ha, rated after three weeks vs untreated control
# Method: as §1, §2, §3, §7, §5, §6
# Xanthium = experiment: Post-emergence test/greenhouse; type: in vivo; conditions: 500 g of ai./ha, rated after three weeks vs untreated control
# Method: as §1, §2, §3, §7, §5, §6
# weeds [7] = experiment: Post-emergence test, overall statement; type: in vivo
# Method: as §1, §2, §3, §7, §5, §6
# [8] = logP determination by reversed-phase HPLC (EEC Directive 79/831 Annex V.A8); type: physicochemical; conditions: reversed-phase C18 HPLC column; a) acidic range: 0.1% aqueous phosphoric acid/acetonitrile gradient, C18, 43° C.
# Method: The logP values given in Example 1 and in Table 1 were determined in accordance with EEC Directive 79/831 Annex V.A^8 by HPLC (High Performance Liquid Chromatography) using a reversed-phase column (C 18). Temperature: 43° C.
# (a) Mobile phases for the determination in the acidic range: 0.1% aqueous phosphoric acid, acetonitrile; linear gradient from 10% acetonitrile to 90% acetonitrile—the corresponding data are labelled in Table 1 with ^a).
# (b) Mobile phases for the determination in the neutral range: 0.01 molar aqueous phosphate buffer solution, acetonitrile; linear gradient from 10% acetonitrile to 90% acetonitrile—corresponding data are labelled in Table 1 with ^b).
# Calibration was carried out using unbranched alkan-2-ones (with from 3 to 16 carbon atoms) whose logP values are known (determination of the logP values by the retention times using linear interpolation between two successive alkanones).
# weeds [9] = experiment: Pre-emergence test, overall statement; type: in vivo
# Method: as §1, §2, §3, §4, §5, §6
SMILES,% damage Amaranthus (Amaranthus [1]) [%],% damage Alopecurus (Alopecurus [2]) [%],% damage Setaria (Setaria [3]) [%],% damage Abutilon (Abutilon) [%],% damage Galium (Galium) [%],% damage Amaranthus (Amaranthus [4]) [%],% damage Alopecurus (Alopecurus [5]) [%],% damage Sinapis (Sinapis) [%],% damage Setaria (Setaria [6]) [%],% damage Xanthium (Xanthium) [%],activity against weeds (weeds [7]),chromatographic logP [8],activity against weeds (weeds [9])
"CC(F)c1nc(N)nc(NC2CCCc3sccc32)n1 (centres unmarked) [Example 1, 2-amino-4-(1-fluoro-ethyl)-6-(4,5,6,7-tetra-hydrobenzo[b]thiophen-4-yl-amino)-1,3,5-triazine]",100,100,100,95,90,100,95,100,100,100,strong activity,4.26,strong activity
"[H]/N=C(/N)N/C(=N/[H])NC1CCCc2sc(C)cc21 (centres unmarked) [Example II-1, 2-methyl-4,5,6,7-tetrahydrobenzo[b]thiophen-4-yl-biguanide hydrochloride]",,,,,,,,,,,,1.12,

# From patent US6756342B1, “Substituted thienocycloalk(en) ylamino -1,3,5-triazine” (priority 1999, dated 2004)
